Legend:
[1] = Inhibition of maize histone deacetylase 1A; design: species or system Zea mays
Zea mays = test: Selectivity for IC50 of maize histone deacetylase 1A over IC50 of maize histone deacetylase 1B
Histone deacetylase HD1B = Histone deacetylase HD1B (Zea mays, UniProt Q9ZTP8); test: Inhibition of maize histone deacetylase 1B
Sequence of Histone deacetylase HD1B (Q9ZTP8 whole entry): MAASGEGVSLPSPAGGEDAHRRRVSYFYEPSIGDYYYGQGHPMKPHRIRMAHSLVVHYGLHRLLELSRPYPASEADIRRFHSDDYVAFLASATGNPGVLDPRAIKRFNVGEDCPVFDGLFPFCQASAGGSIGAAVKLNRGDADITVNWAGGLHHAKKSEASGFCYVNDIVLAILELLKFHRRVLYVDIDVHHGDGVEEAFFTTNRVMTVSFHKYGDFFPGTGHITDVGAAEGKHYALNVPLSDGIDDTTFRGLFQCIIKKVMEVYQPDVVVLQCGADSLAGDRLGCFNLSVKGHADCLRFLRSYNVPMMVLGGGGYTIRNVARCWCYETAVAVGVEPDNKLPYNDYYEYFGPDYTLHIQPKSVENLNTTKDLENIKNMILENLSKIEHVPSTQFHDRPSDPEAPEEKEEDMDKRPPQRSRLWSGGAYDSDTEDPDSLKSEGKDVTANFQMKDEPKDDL

| Compound | IC50 [1] | pIC50 [1] | Ratio IC50 (Zea mays) | IC50 (Histone deacetylase HD1B; read-out: IC50) | IC50 (Histone deacetylase HD1B; read-out: pIC50 (converted)) |
| --- | --- | --- | --- | --- | --- |
| Cn1cc(/C=C/C(=O)c2ccc(F)c(Cl)c2)cc1/C=C/C(=O)NO | 500 nM | 6.733 | 2.8 | 1400 nM | 621 nM |
| Cn1cc(/C=C/C(=O)c2ccc3c(c2)OCCO3)cc1/C=C/C(=O)NO | 185 nM | 6.708 | 3.4 | 621 nM | – |
| Cn1cc(/C=C/C(=O)c2c(F)cccc2F)cc1/C=C/C(=O)NO | 167 nM | 5.553 | 4.8 | 807 nM | 17000 nM |
| Cn1cc(/C=C/C(=O)c2ccc(Br)cc2)cc1/C=C/C(=O)NO | 20300 nM | – | 1.2 | 24300 nM | – |
| Cn1cc(/C=C/C(=O)c2ccccc2Cl)cc1/C=C/C(=O)NO | 50 nM | – | 32 | 1600 nM | – |
| Cn1cc(/C=C/C(=O)c2cccc(Cl)c2)cc1/C=C/C(=O)NO | 440 nM | – | 71.4 | 31400 nM | – |
| Cn1cc(/C=C/C(=O)c2ccccc2Br)cc1/C=C/C(=O)NO | 210 nM | – | – | 180 nM | – |
| Cn1cc(/C=C/C(=O)c2cc3ccccc3o2)cc1/C=C/C(=O)NO | 3000 nM | 5.469 | 4 | 12000 nM | 59000 nM |
| Cn1cc(/C=C/C(=O)c2cc(F)ccc2F)cc1/C=C/C(=O)NO | 800 nM | 6.097 | 20.8 | 16600 nM | 800 nM |
| Cn1cc(/C=C/C(=O)c2ccc(-c3ccccc3)cc2)cc1/C=C/C(=O)NO | 2200 nM | – | 14.4 | 31800 nM | – |
| Cn1cc(/C=C/C(=O)c2cccc(F)c2)cc1/C=C/C(=O)NO | 220 nM | – | 176 | 38800 nM | – |
| COc1cccc(C(=O)/C=C/c2cc(/C=C/C(=O)NO)n(C)c2)c1 | 390 nM | – | 1.5 | 600 nM | – |
| Cn1cc(/C=C/C(=O)c2ccc(F)c(F)c2)cc1/C=C/C(=O)NO | 2200 nM | 5.658 | 6.1 | 13500 nM | – |
| CC(/C=C/C(=O)NO)=C\[C@@H](C)C(=O)c1ccc(N(C)C)cc1 [TRICHOSTATIN] | 0.8 nM | – | – | – | – |
| Cn1cc(/C=C/C(=O)c2ccccc2F)cc1/C=C/C(=O)NO | 100 nM | – | 34 | 3400 nM | – |
| Cc1ccc(C(=O)/C=C/c2cc(/C=C/C(=O)NO)n(C)c2)cc1 | 500 nM | – | 9.6 | 4800 nM | – |
| Cn1cc(/C=C/C(=O)c2cccc3ccccc23)cc1/C=C/C(=O)NO | 10 nM | – | 33 | 330 nM | – |
| CC/C(=C\c1cc(/C=C/C(=O)NO)n(C)c1)C(=O)c1ccccc1 | 220 nM | – | 20.4 | 4500 nM | – |
| Cn1cc(/C=C/C(=O)c2cccc(C(F)(F)F)c2)cc1/C=C/C(=O)NO | 9300 nM | 5.032 | 17.1 | 159000 nM | – |
| Cn1cc(/C=C/C(=O)c2ccsc2)cc1/C=C/C(=O)NO | 13800 nM | – | 1.6 | 22600 nM | – |

| Compound | IC50 [1] | pIC50 [1] | Ratio IC50 (Zea mays) | IC50 (Histone deacetylase HD1B; read-out: IC50) | IC50 (Histone deacetylase HD1B; read-out: pIC50 (converted)) |
| --- | --- | --- | --- | --- | --- |
| Cn1cc(/C=C/C(=O)c2cccc(Br)c2)cc1/C=C/C(=O)NO | 1600 nM | – | – | 480 nM | – |
| Cn1cc(/C=C/C(=O)c2cccc(OC(F)(F)F)c2)cc1/C=C/C(=O)NO | 90000 nM | 4.046 | 3.3 | 298000 nM | – |
| Cn1cc(/C=C2\CCc3ccccc3C2=O)cc1/C=C/C(=O)NO | 3400 nM | 6.777 | 17.3 | 59000 nM | 807 nM |
| Cc1ccccc1C(=O)/C=C/c1cc(/C=C/C(=O)NO)n(C)c1 | 60 nM | – | 6.5 | 390 nM | – |
| Cn1cc(/C=C/C(=O)c2cccc(Cl)c2Cl)cc1/C=C/C(=O)NO | 6800 nM | 6.243 | 2.5 | 17200 nM | – |
| Cn1cc(/C=C/C(=O)c2ccc(Cl)cc2Cl)cc1/C=C/C(=O)NO | 2800 nM | 5.523 | 6.1 | 17000 nM | – |
| Cn1cc(/C=C/C(=O)c2ccc(F)cc2)cc1/C=C/C(=O)NO | 15700 nM | – | 1.6 | 24900 nM | – |
| Cn1cc(/C=C/C(=O)c2ccco2)cc1/C=C/C(=O)NO | 1200 nM | – | 16.4 | 19700 nM | – |
| Cc1cccc(C(=O)/C=C/c2cc(/C=C/C(=O)NO)n(C)c2)c1 | 170 nM | – | 14.7 | 2500 nM | – |
| Cn1cc(/C=C2\CCCc3ccccc3C2=O)cc1/C=C/C(=O)NO | 196 nM | 6.301 | 2.6 | 510 nM | 1400 nM |
| Cn1cc(/C=C/C(=O)c2cccs2)cc1/C=C/C(=O)NO | 16300 nM | – | 1.6 | 25800 nM | – |
| Cn1cc(/C=C/C(=O)c2ccc3c(c2)CCO3)cc1/C=C/C(=O)NO | 2100 nM | – | 3 | 6400 nM | – |
| Cn1cc(/C=C/C(=O)c2ccccc2)cc1/C=C/C(=O)NO | 190 nM | – | – | 260 nM | – |
| Cn1cc(/C=C/C(=O)c2cc(F)cc(F)c2)cc1/C=C/C(=O)NO | – | 5.678 | 11.2 | 23500 nM | – |
| COc1ccccc1C(=O)/C=C/c1cc(/C=C/C(=O)NO)n(C)c1 | 160 nM | – | – | 170 nM | – |
| Cn1cc(/C=C/C(=O)c2ccc3ccccc3c2)cc1/C=C/C(=O)NO | 40 nM | – | 45 | 1800 nM | – |
| Cn1cc(/C=C/C(=O)c2ccc(Cl)cc2)cc1/C=C/C(=O)NO | 18600 nM | – | – | 29400 nM | – |
| COc1ccc(C(=O)/C=C/c2cc(/C=C/C(=O)NO)n(C)c2)cc1 | 790 nM | – | – | 800 nM | – |
| Cn1cc(/C=C/C(=O)c2ccc(Cl)c(Cl)c2)cc1/C=C/C(=O)NO | 5900 nM | 5.229 | 3.6 | 21300 nM | – |
| C/C(=C\c1cc(/C=C/C(=O)NO)n(C)c1)C(=O)c1ccccc1 | 780 nM | – | – | 570 nM | – |

— ChEMBL document CHEMBL1149816, “Class II-selective histone deacetylase inhibitors. Part 2: alignment-independent GRIND 3-D QSAR, homology and docking studies” (Eur J Med Chem, 2008)
